Results published in patent publication US20140011811A1, “MYOSIN BINDING PROTEIN-C FOR USE IN METHODS RELATING TO DIASTOLIC HEART FAILURE” (The United States Government as represented by the …, priority 2011, published 2014).

Legend:
DOCA-salt mice = test: Echocardiography (mitral pulse wave Doppler flow and tissue Doppler imaging) in DOCA-salt mouse model of diastolic dysfunction; type: in vivo; conditions: DOCA-salt+BH4 mice, BH4 supplemental diet 5 mg BH4/day, postoperative day 11 to 18, echocardiography day 18
Description: Previously, we have shown that the DOCA-salt mouse model leads to mild hypertension, NOS uncoupling, myocardial oxidative stress, and diastolic dysfunction. A gradual and mild elevation in blood pressure was induced by unilateral nephrectomy, subcutaneous implantation of a controlled release deoxycorticosterone acetate (DOCA) pellet (0.7 mg/d; Innovative Research of America, Sarasota, Fla.), and substituting drinking water with 1.05% saline. Control animals underwent a sham operation, had placebo pellet implantation, and received water without salt.
Mice were divided into two groups which received a control diet (sham N=7; DOCA-salt N=10) and two groups which received a BH4 supplemental diet of 5 mg BH4/day (Research Diets Inc, New Brunswick, N.J.; sham+BH4 N=8; DOCA-salt+BH4 N=8). The supplemental diet began on day 11 after surgery, and continued until day 18, when the mice were analyzed and sacrificed.
Ten days after surgery, we employed echocardiography to characterize the diastolic dysfunction. […] The images for each mouse were recorded for at least 5 s (30-40 cardiac cycles) from which three to five representative cycles with the highest quality imaging were selected. Percent fractional shortenin (% FS) were calculated as 100×(LVEDd)-(LVESd)/(LVEDd) and percent LV ejection fraction (%EF) was calculated as 100×[(7/2.4+LVEDd)×LEDd^3]−[(7/2.4+LVESd)×LVESd^3]/[(7/2.4+LVEDd)×LEDd^3]. […]

[1] = test system: myosin binding protein C (MyBP-C); test: Western immunoblotting of S-glutathionylation of MyBP-C in cardiac myofilaments from treated DOCA-salt and sham mice; type: in vivo, mouse; conditions: chronic ranolazine diet (~1 g/day tablet with 5 mg ranolazine and 0.3 mg P450 inhibitor), postoperative day 11 to 18
Description: Chronic Administration of Ranolazine: A special diet contained 5 mg ranolazine, 0.3 mg P450 inhibitor, and 0.25 mg red food color was pressed into a 1-g nutritionally complete grain-based tablet (Harlan, Madison, Wis.). The control diet contained 0.3mg P450 inhibitor and 0.25 mg yellow food color pressed into the same type of 1-g tablets. DOCA-salt and sham mice consumed daily ˜1g of the special diet from postoperative day 11 to 18. Western blot analysis was used to detect for glutathionylated proteins. […] Using the protein concentration determined from an RC-DC (Bio-Rad) assay, 40 μg of total protein was applied to 1D 12% resolving SDS-PAGE gel and transferred onto a 0.2 μM Polyvinylidene fluoride (PVDF) membrane. […] Anti-glutathione mouse monoclonal primary antibody (Virogen, Watertown, Mass.) was used at 1:1000 dilution along with anti-mouse HRP-conjugated secondary antibody (Sigma) at 1:100,000 dilution to detect for S-glutathionylation.10 Optical density of the bands was measured with ImageQuant TL (GE Healthcare) and exported to Excel for further analysis. […] Using the protein concentration determined from an RC-DC (Bio-Rad) assay, 40 µg of total protein was applied to a 12% SDS-PAGE gel and transferred onto a 0.2 pm PVDF membrane. […] Optical density of the bands was measured with ImageQuant TL (GE Healthcare) and exported to Excel for further analysis. […]

MyBP-C = test: Pro-Q Diamond gel stain of phosphorylation of MyBP-C in myofibrils from treated DOCA-salt and sham mice; type: in vivo, mouse; conditions: DOCA-salt or sham mice treated as in Examples 1 and 2
Description: DOCA-salt or sham mice were administered ranolazine or BH4 as essentially described in Examples 1 and 2, respectively. Pro-Q Diamond (Invitrogen) gel stain was used to detect changes in phosphorylation states of MyBP-C. Myofibrils were prepared from DOCA-salt and sham models of the mice hearts, and pellets were solubilized in a non-reducing 2× laemmli buffer (4% SDS, 20% glycerol, 0.004% bromophenol blue, and 0.125 M Tris HCl pH 6.8). 25 mM N-ethylmaleimide (NEM) was added to the standard rigor buffer with Triton X-100, the standard rigor wash buffer, and the 2× Laemmli buffer. An RC-DC assay (BioRad) was used to determine protein concentrations. Samples were diluted at 1:1 ratio in reducing sample buffer (8 M urea, 2 M thiourea, 0.05 M tris pH 6.8, 75 mM DTT, 3% SDS, and 0.05% bromophenol blue and approximately 10 μg of protein was loaded on to a 12% resolving 1D SDS-PAGE gel. The gels were stained and destained with Pro-Q Diamond according to the manufacturer's recommendations prior to the imaging with a Typhoon 9410 scanner (GE Healthcare). Coomassie R-250 staining was used to normalize protein load to both actin and the whole lane. Optical density of the proteins was determined using ImageQuant TL (GE Healthcare) software and results were exported to Excel for further analysis.

Row | Structure (SMILES) | ratio of E′A′ (mitral tissue Doppler E′/A′) (DOCA-salt mice; vs. DOCA-salt 0.74±0.05, P<0.001) | E/E′ ratio, a measure of left atrial pressure (DOCA-salt mice; vs. DOCA-salt 43.7±2.7, P<0.01) | MyBP-C glutathionylation [1] | phosphorylation levels of MyBP-C (MyBP-C)
1 | C[C@H](O)[C@H](O)[C@H]1CNc2nc(N)[nH]c(=O)c2N1 [BH4, tetrahydrobiopterin] | 1.12±1.10 | 34.5±2.2 | – | –
2 | COc1ccccc1OCC(O)CN1CCN(CC(=O)Nc2c(C)cccc2C)CC1 (stereo not shown) [ranolazine] | – | – | regressed level | did not affect
